“Also recorded” adds a separate entry of the source.

Test [1] deals with resistin mRNA. Kind of test: resistin mRNA level in differentiated 3T3-L1 adipocytes (RT-PCR, real time-PCR). The format is cell-based, mouse. The settings on record: for resistin mRNA level: pretreatment with inhibitor 1 μM alone, no ET-1. As for the experimental part:
Referring to FIGS. 1A and 1B which are presented to detect the time-dependent effect of ET-1 on resistin mRNA level, the differentiated 3T3-L1 adipocytes are treated with 100 nM ET-1 at different time periods, including 0, 0.25, 0.5, 1, 2, 4, 6, 8, 12, and 24 hours, After the treatment, resistin mRNA is analyzed by the respective method of reverse transcription-polymerase chain reaction (RT-PCR) (FIG. 1A) and real time-PCR. The forward and reverse primers are [NT] and [NT] for mouse GAP DH and [NT] and [NT] for mouse resistin, respectively. […] The duration of ET-1 incubation that causes the maximum effect on resistin mRNA levels is 2 hours. Referring to FIGS. 1C and 1D which are presented to detect the concentration-dependent effect of ET-1 on resistin mRNA level, the differentiated 3T3-L1 adipocytes are treated with different concentrations of ET-1, such as 0, 10, 50, and 100 nM. After 2 hours of ET-1 incubation, resistin mRNA levels are determined by RT-PCR (FIG. 1C) and by real time-PCR (FIG. 1D). Levels of resistin mRNA are increased by 50%, 100%, and 200% after 10, 50 and 100 nM ET-1 are respectively added. According to the results, 100 nM ET-1 is used in the following embodiments of the present invention for treatment of the differentiated 3T3-L1 adipocytes. […] After different time points of ET-1 treatment, ET-1 signaling molecules, such as ERK1/2, JNKs, P38, AKT, and STAT3 proteins, and resistin mRNA levels are determined by Western blotting analysis and PCR analysis, respectively.

Test [2] concerns ERK1/2. As to the kind of experiment: ERK1/2 phosphorylation in differentiated 3T3-L1 adipocytes (Western blotting). The format is cell-based. The settings on record: for basal level of phosphorylation of ERK1/2: inhibitor 1 μM alone, absence of ET-1. As for the experimental part: (§1) Referring to FIGS. 2A, 2B, 2C, 2D, and 2E which are presented to detect the time-dependent effect of ET-1 on ET-1 signaling molecules, including ERK1 /2, JNKs, p38, […] or STAT3 proteins, the differentiated 3T3-L1 adipocytes are treated with or without 100 nM ET-1 at different time points, such as 2, 5, 15, 30, 120, and 240 minutes. After ET-1 incubation, the total protein amounts and the phosphorylation levels of each ET-1 signaling molecule are determined by Western blotting analysis.
(§2) Referring to FIGS. 3A, 3B, and 3C which are presented to further study the endothelin receptor-dependent of ET-1 on the phosphorylation of downstream signaling molecules and on resistin mRNA expression, the differentiated 3T3-L1 adipocytes are pretreated with or without either 1 μM BQ610 (an ETAR inhibitor) or 1 μM BQ788 (an endothelin type B receptor (ETBR) inhibitor) for 1 hour, and then incubated with 100 nM ET-1. After different time points of ET-1 treatment, ET-1 signaling molecules, such as ERK1/2, JNKs, P38, AKT, and STAT3 proteins, and resistin mRNA levels are determined by Western blotting analysis and PCR analysis, respectively. FIG. 3A, 3B, and 3C are presented with or without 5, 15, and 120 minutes of 100 nM ET-1 treatments, respectively.
(§3) Referring to FIGS. 4A, 4B, 4C, 4D, and 4E which are presented to study the effect of the inhibitors of ET-1 signaling molecules, the differentiated 3T3-L1 adipocytes are pretreated with or without the specific inhibitors of ERK1/2, JNK, AKT, STAT3, or p38 for 30 minutes and then incubated with 100 nM ET-1. These inhibitors comprise 1,4-diamino-2,3-dicyano-1,4-bis [2-aminophenylthio]butadiene (U0126, 25 μM; an ERK1/2 inhibitor), 2-(2-Amino-3-methoxyphenyl)-4H-1-benzopyran-4-one (PD98059, 50 μM; an ERK1/2 inhibitor), anthrapyrazolone (SP600125, 20 μM; a JNK inhibitor), SB203580 (20 μM; a p38 inhibitor), 2-(4-morpholinyl)-8-phenyl-4H-1-benzopyran-4-one (LY294002, 50 μM; a PI3K/AKT inhibitor), wortmannin (0.2 μM; a PI3K/AKT inhibitor), and tyrphostin (AG490, 20 μM; a STAT3 inhibitor). After 5, 15 and 120 minutes of 100-nM ET-1 treatment, the total amounts and the phosphorylation level of the above ET-1 signaling molecules corresponding to the ET-1 stimulated increases in resistin mRNA level are determined by Western blotting analysis.

For test [3], the system named is JNKs. As to the kind of experiment: JNKs phosphorylation in differentiated 3T3-L1 adipocytes (Western blotting). The test is classed as cell-based. Conditions: for basal level of phosphorylation of JNKs: inhibitor 1 μM alone, absence of ET-1; for ET-1-stimulated phosphorylation of JNKs: inhibitor 1 μM pretreated 1 hour, then 100 nM ET-1 for 5 or 15 minutes. As for the experimental part: as §1, §2, §3
A general note: Immunoblotting shows a protein as a band on a membrane.

Test [4] has as its system AKT. Kind of test: AKT phosphorylation in differentiated 3T3-L1 adipocytes (Western blotting). The format is cell-based. The settings on record: for basal level of phosphorylation of AKT: inhibitor 1 μM alone, absence of ET-1. As for the experimental part:
as §1, §2, §3

Test [5] has as its system STAT3. Kind of test: STAT3 phosphorylation in differentiated 3T3-L1 adipocytes (Western blotting). The test is classed as cell-based. The settings on record: for basal level of phosphorylation of STAT3: inhibitor 1 μM alone, absence of ET-1. As for the experimental part:
as §1, §2, §3

Test [6] concerns p38. As to the kind of experiment: p38 phosphorylation in differentiated 3T3-L1 adipocytes (Western blotting). The test is classed as cell-based. As for the experimental part: as §1
as §2, with “treatments, respectively. […]” for “treatments, respectively.”

Test [7] has as its system resistin protein. As to the kind of experiment: resistin protein level in differentiated 3T3-L1 adipocytes (Western blotting). The format is cell-based. As for the experimental part:
Referring to FIG. 4F which detects the concentration-dependent effect of ET-1 on resistin protein level, the differentiated 3T3-L1 adipocytes are treated with different concentrations of ET-1, such as 0, 10, 50, and 100 nM. After ET-1 incubation, resistin protein levels are determined by Western blotting analysis. Levels of resistin protein are increased by about 120%, 130%, and 140% after 10, 50 and 100 nM ET-1 are respectively added.

Setting [8] is: inhibitor 1 μM pretreated 1 hour, then 100 nM ET-1 for 5 or 15 minutes.
The mark [9] stands for this setting: inhibitor 1 μM, in the presence and absence of ET-1.
[10] abbreviates: inhibitor 50 μM pretreated 30 minutes, then 100 nM ET-1.
[11] abbreviates: inhibitor 20 μM pretreated 30 minutes, then 100 nM ET-1.
The mark [12] stands for this setting: 100 nM ET-1, time points 2-240 minutes.
Where [13] appears, read: 100 nM ET-1 alone for 5 minutes or 15 minutes.

With `CC(C)C[C@H](NC(=O)N1CCCCCC1)C(=O)N[C@H](Cc1cn(C=O)c2ccccc12)C(=O)N[C@H](Cc1c[nH]c2ccccc12)C(=O)O` [BQ610], in test [1] (inhibitor 1 μM pretreated 1 hour, then 100 nM ET-1 for 120 minutes), the “ET-1-stimulated resistin mRNA expression” value is listed as “suppresses”. Also, the “resistin mRNA level” value in test [1] was “does not alter”. For the same compound, in test [2], the “basal level of phosphorylation of ERK1/2” value is listed as “does not alter”. Besides, the “ET-1-stimulated phosphorylation of ERK1/2” value in test [2] (setting [8]) was “inhibits”. Moreover, in test [3], the “basal level of phosphorylation of JNKs” value is on record as “does not alter” and the “ET-1-stimulated phosphorylation of JNKs” value is on record as “inhibits”. Moreover, in test [4], the “basal level of phosphorylation of AKT” value is reported as “does not alter”. The “ET-1-stimulated phosphorylation of AKT” value in test [4] (setting [8]) is “inhibits”. The “basal level of phosphorylation of STAT3” value in test [5] is on record as “does not alter”. Also, in test [5] (setting [8]), the “ET-1-stimulated phosphorylation of STAT3” value was “inhibits”.
Consider `CCCC[C@@H](NC(=O)[C@@H](Cc1cn(C(=O)OC)c2ccccc12)NC(=O)[C@H](CC(C)(C)C)NC(=O)N1[C@H](C)CCC[C@@H]1C)C(=O)O` [BQ788], for which the “resistin mRNA level” value in test [1] is on record as “does not alter”. In test [2], the “basal level of phosphorylation of ERK1/2” value is on record as “does not alter”. Also, in test [2] (setting [8]), the “ET-1-stimulated phosphorylation of ERK1/2” value is on record as “does not alter”. The “total amounts of ERK1/2 protein” value in test [2] (setting [9]) is reported as “does not alter”. In test [3], the “basal level of phosphorylation of JNKs” value was “does not alter” and the “ET-1-stimulated phosphorylation of JNKs” value is on record as “does not alter”. For the same compound, the “total amounts of JNKs protein” value in test [3] (setting [9]) is on record as “does not alter”. In addition, in test [4], the “basal level of phosphorylation of AKT” value is “does not alter”. Besides, in test [4] (setting [8]), the “ET-1-stimulated phosphorylation of AKT” value was “does not alter”. The “total amounts of AKT protein” value in test [4] (setting [9]) is recorded as “does not alter”. Further, in test [5], the “basal level of phosphorylation of STAT3” value is reported as “does not alter”. Further, the “ET-1-stimulated phosphorylation of STAT3” value in test [5] (setting [8]) is reported as “does not alter”. Further, the “total amounts of STAT3 protein” value in test [5] (setting [9]) is recorded as “does not alter”.
Take `O=c1cc(N2CCOCC2)oc2c(-c3ccccc3)cccc12` [LY294002, 2-(4-morpholinyl)-8-phenyl-4H-1-benzopyran-4-one]: the “ET-1-stimulated phosphorylation of AKT” value in test [4] (setting [10]) is on record as “inhibited”.
Take `COc1cccc(-c2cc(=O)c3ccccc3o2)c1N` [PD98059, 2-(2-Amino-3-methoxyphenyl)-4H-1-benzopyran-4-one]: in test [2] (setting [10]), the “ET-1-stimulated phosphorylation of ERK1/2” value is listed as “inhibited”.
Consider `C[S+]([O-])c1ccc(-c2nc(-c3ccncc3)c(-c3ccc(F)cc3)[nH]2)cc1` (stereo not shown) [SB203580], for which, in test [6] (setting [11]), the “phosphorylation of p38” value is recorded as “not stimulated by ET-1 or inhibited”.
In the case of `N#CC(=C(N)Sc1ccccc1N)C(C#N)=C(N)Sc1ccccc1N` [U0126, 1,4-diamino-2,3-dicyano-1,4-bis [2-aminophenylthio]butadiene], the “ET-1-stimulated phosphorylation of ERK1/2” value in test [2] (inhibitor 25 μM pretreated 30 minutes, then 100 nM ET-1) is given as “inhibited”.
With “ET-1: endothelin-1, one of the strongest vasoconstrictors; stimulus used on 3T3-L1 adipocytes”, the “increase of resistin mRNA levels” value in test [1] (10 nM ET-1, 2 hours) is 50%; in test [1] (50 nM ET-1, 2 hours), 100%; in test [1] (100 nM ET-1, 0.25-12 hours after treatment, differentiated 3T3-L1 adipocytes), 100-250%; in test [1] (100 nM ET-1, 2 hours), 200%. Moreover, the “duration of ET-1 incubation that causes the maximum effect on resistin mRNA levels” value in test [1] (100 nM ET-1, time course 0-24 hours) is 2 h. For the same compound, in test [2] (setting [12]), the “time of maximum phosphorylation of ERK1/2” value is 2 min. The “phosphorylation of ERK1/2” value in test [2] (setting [13]) is on record as “increased phosphorylation”. Moreover, the “time of maximum phosphorylation of JNKs” value in test [3] (setting [12]) turned out to be 15 min. The “phosphorylation of JNKs” value in test [3] (setting [13]) is on record as “increased phosphorylation”. Besides, in test [6] (100 nM ET-1), the “phosphorylation of p38 on ET-1 stimulation” value is “not altered; also recorded: not stimulated”. Besides, in test [4] (setting [13]), the “phosphorylation of AKT” value is given as “increased phosphorylation”. In test [5] (setting [13]), the “phosphorylation of STAT3” value is recorded as “increased phosphorylation”. Besides, the results for the “increase of resistin protein levels” value in test [7] (10 nM ET-1), in test [7] (50 nM ET-1) and in test [7] (100 nM ET-1) were “about 120%”, approximately 130% and approximately 140%, respectively.
As for tyrphostin [AG490], the “ET-1-stimulated phosphorylation of STAT3” value in test [5] (setting [11]) is on record as “inhibited”.

These data come from patent publication US20150045358A1, “PHARMACEUTICAL COMPOSITION FOR TREATING DISORDERS ASSOCIATED WITH INSULIN RESISTANCE” (National Central University, priority 2012, published 2015).
